# Assay results from patent US20230190924A1, “ANTIGEN OF ALLERGY AND EPITOPE THEREOF” (HOYU CO., LTD., priority 2017, published 2023).
# Test system: IgE antibodies from patients
# Experiment: Epitope mapping (2) overlapping (10-amino-acid peptides) and (3) alanine scanning on peptide arrays
# Assay type: binding, human
# Details: overlapping peptides with flanking sequence
# Procedure: On the basis of the sequences (SEQ ID NOs: 272-295 for vitellogenin-2 precursor, SEQ ID NOs: 296-303 for vitellogenin-3, SEQ ID NOs: 304-311 for apolipoprotein B precursor, and SEQ ID NOs: 312-318 for vitellogenin-1 or lipovitellin-1) of the peptides bound to an IgE antibody in serum in a patient-specific manner as described above in (A), a library of overlapping peptide fragments (length: 10 amino acids) was prepared using the sequences of the peptides and sequences in which sequences were added so as to flank each peptide in the amino acid sequences of allergen components (amino acid sequences of SEQ ID NO: 59, 106 or 262 for vitellogenin-2 precursor, SEQ ID NO: 2, 13 or 47 for vitellogenin-3, SEQ ID NO: 152, 237 or 251 for apolipoprotein B, and SEQ ID NO: 18 for vitellogenin-1 or lipovitellin-1) comprising the sequences of the peptide to carry out epitope mapping.
# The peptides to be synthesized were shifted by one amino acid.
# The library was prepared by the same procedure as described above in (A), and the presence or absence of binding of an IgE antibody present in the serum of a patient and a non-egg-allergic subject to each peptide fragment was measured by the same technique as described above. Amino acids at positions where the binding activity against IgE antibodies from patients were lost or decreased in the peptides shifted by one amino acid while binding activity against IgE antibodies from non-egg-allergic subjects arose were confirmed as amino acids adversely affecting the specificity of binding to IgE antibodies.
# Chemiluminescence intensity in images obtained by measurement was converted into a numeric value in the same manner as in (A) using ImageQuant TL (GE Healthcare). Numeric values determined from images obtained as a result of using only anti-human IgE antibody-HRP antibody without carrying out the procedures (2) and (3) described above in the subsection titled (3) Spotting of cellulose-bound peptide solution were […] numeric values determined from images obtained from results about the serum of 6 patients. It was determined that a peptide having the resulting value larger than 0 had no binding activity against IgE antibodies when having less than 20% of values obtained using the sequences (amino acid sequences of SEQ ID NO: 59, 106 or 262 for vitellogenin-2, SEQ ID NO: 2, 13 or 47 for vitellogenin-3, SEQ ID NO: 152, 237 or 251 for apolipoprotein B, and SEQ ID NO: 18 for vitellogenin-1 or lipovitellin-1) serving as the basis of overlapping, had binding activity, albeit poor, against IgE antibodies when having 20% or more and less than 50% thereof, had binding activity, albeit somewhat poor, against IgE antibodies when having 50% or more and less than 70% thereof, had almost equivalent binding activity against IgE antibodies when having 70% or more and less than 90% thereof, and had equivalent or good binding activity against IgE antibodies and thus had remaining binding activity against IgE antibodies when having 90% or more thereof.
# From the amino acid sequences identified above in (A), a library of peptide fragments in which N-terminal amino acids were substituted one by one by alanine according to a technique called alanine scanning (Non Patent Literature 1) was prepared by the same technique as described above. The presence or absence of binding of an IgE antibody present in the serum of a patient and a non-egg-allergic subject to each peptide fragment was measured by the same technique as described above. Amino acids at positions where the binding activity against IgE antibodies from patients were lost or decreased by the substitution by alanine while binding activity against IgE antibodies from non-egg-allergic subjects arose were confirmed as amino acids important for exertion of original antigenicity, or amino acids influencing exertion of original antigenicity.
Substance,"binding to IgE antibodies from patients, sequence comprising a region carboxy-terminally adjacent to the epitope","binding to IgE antibodies from patients, sequence comprising a region amino-terminally adjacent to the epitope"
SEQ ID NO: 336: sequence comprising a region carboxy-terminally adjacent to epitope 3 (ALKCIGNMGE; epitope),binding to IgE antibodies from patients,
SEQ ID NO: 462: sequence comprising a region amino-terminally adjacent to epitope 19 (NKIKTFNE; epitope),,binding to IgE antibodies from patients
SEQ ID NO: 404: sequence comprising a region amino-terminally adjacent to epitope 9 (EVAFININKE; epitope),,binding to IgE antibodies from patients
SEQ ID NO: 516: sequence comprising a region amino-terminally adjacent to epitope 23 (PCRGACKLH; epitope),,binding to IgE antibodies from patients
SEQ ID NO: 377: sequence comprising a region amino-terminally adjacent to epitope 8 (IKELGKALQG; epitope),,binding to IgE antibodies from patients
SEQ ID NO: 487: sequence comprising a region carboxy-terminally adjacent to epitope 20 (NIKIGSHEI; epitope),binding to IgE antibodies from patients,
SEQ ID NO: 402: sequence comprising a region carboxy-terminally adjacent to epitope 8 (LPTETPLVSA; epitope),binding to IgE antibodies from patients,
SEQ ID NO: 613: sequence comprising a region amino-terminally adjacent to epitope 39 (ANELLDR; epitope),,binding to IgE antibodies from patients
SEQ ID NO: 605: sequence comprising a region amino-terminally adjacent to epitope 38 (LVNYSPTKG; epitope),,binding to IgE antibodies from patients
SEQ ID NO: 604: sequence comprising a region amino-terminally adjacent to epitope 38 (LVNYSPTK; epitope),,binding to IgE antibodies from patients
SEQ ID NO: 557: sequence comprising a region carboxy-terminally adjacent to epitope 33 (AENLNQFIET; epitope),binding to IgE antibodies from patients,
SEQ ID NO: 556: sequence comprising a region carboxy-terminally adjacent to epitope 33 (NWAENLNQFI; epitope),binding to IgE antibodies from patients,
SEQ ID NO: 622: sequence comprising a region amino-terminally adjacent to epitope 40 (GRYLHLAAV; epitope),,binding to IgE antibodies from patients

# Same assay, conditions: procedures (B) overlapping and (C) alanine scanning
row,Substance,region within the epitope important for binding to IgE antibodies from patients
1,SEQ ID NO: 531: region in epitope 26 (GLLIS; epitope),important for binding
2,SEQ ID NO: 491: region in epitope 21 (AAPGHG; epitope),important for binding
3,SEQ ID NO: 512: region in epitope 22 (MPNGYLAKNA; epitope),important for binding
4,SEQ ID NO: 585: region in epitope 36 (GKGFE; epitope),important for binding
5,SEQ ID NO: 507: region in epitope 21 (PGHGIDKLYF; epitope),important for binding
6,SEQ ID NO: 458: region in epitope 17 (KWKLCADAS; epitope),important for binding
7,SEQ ID NO: 555: region in epitope 33 (AEKYDLKN; epitope),important for binding
8,SEQ ID NO: 400: region in epitope 8 (GWKELPTETP; epitope),important for binding
9,SEQ ID NO: 344: region in epitope 4 (KIAWKDPKTV; epitope),important for binding
10,SEQ ID NO: 505: region in epitope 21 (AAPGHGID; epitope),important for binding
11,SEQ ID NO: 366: region in epitope 6 (SPRTMFPSAI; epitope),important for binding
12,SEQ ID NO: 600: region in epitope 37 (IVTPGAKVAV; epitope),important for binding
13,SEQ ID NO: 444: region in epitope 16 (QEFPKRKLPG; epitope),important for binding
14,SEQ ID NO: 330: region in epitope 3 (RGREDKMK; epitope),important for binding
15,SEQ ID NO: 659: region in epitope 46 (MSFDSDSASG; epitope),important for binding
16,SEQ ID NO: 539: region in epitope 27 (CGICGKYDA; epitope),important for binding
17,SEQ ID NO: 374: region in epitope 7 (ISKLMANSA; epitope),important for binding
18,SEQ ID NO: 355: region in epitope 5 (LLSPKLDS; epitope),important for binding
19,SEQ ID NO: 500: region in epitope 21 (DKLYFDG; epitope),important for binding
20,SEQ ID NO: 434: region in epitope 15 (SSSSSNSKS; epitope),important for binding
21,SEQ ID NO: 642: region in epitope 41 (GQELL; epitope),important for binding
22,SEQ ID NO: 581: region in epitope 35 (SVPGLNP; epitope),important for binding
23,SEQ ID NO: 335: region in epitope 3 (KMKLALKCIG; epitope),important for binding
24,SEQ ID NO: 414: region in epitope 10 (ADRNA; epitope),important for binding
25,SEQ ID NO: 483: region in epitope 20 (ATNLKAINIK; epitope),important for binding
